Data taken from article PMC9358681 (Biochemical pharmacology, 2022).
“And” between values parts separate entries of the source, which are not always exact repeats. Equal values may be shown once. Read-outs that look alike come from different tables or passages of the source.

Key:
A3 adenosine receptor = molecular target: T1, A3 adenosine receptor (Homo sapiens, UniProt P0DMS8); experiment: Radioligand binding, human A3 ([125I]I-AB-MECA, HEK-293); settings: HEK-293, [125I]I-AB-MECA
T1 sequence (P0DMS8 1-318): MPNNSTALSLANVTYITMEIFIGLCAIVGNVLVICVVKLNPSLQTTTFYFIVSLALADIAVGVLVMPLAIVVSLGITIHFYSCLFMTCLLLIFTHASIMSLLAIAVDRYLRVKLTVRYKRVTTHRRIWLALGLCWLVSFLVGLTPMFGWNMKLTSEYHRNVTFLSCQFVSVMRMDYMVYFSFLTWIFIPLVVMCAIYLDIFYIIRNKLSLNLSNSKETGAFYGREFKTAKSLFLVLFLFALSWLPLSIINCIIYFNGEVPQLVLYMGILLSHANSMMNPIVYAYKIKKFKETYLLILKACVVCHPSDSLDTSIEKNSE
Source text: (§1) The A2B receptor selectivity was generally low, especially at the rat A2B receptor.

A1 adenosine receptor [1] = molecular target: T2, A1 adenosine receptor (Homo sapiens, UniProt P30542); experiment: Radioligand binding, human A1 ([3H]R-PIA, HEK-293); settings: HEK-293, [3H]R-PIA
T2 sequence (P30542 1-326): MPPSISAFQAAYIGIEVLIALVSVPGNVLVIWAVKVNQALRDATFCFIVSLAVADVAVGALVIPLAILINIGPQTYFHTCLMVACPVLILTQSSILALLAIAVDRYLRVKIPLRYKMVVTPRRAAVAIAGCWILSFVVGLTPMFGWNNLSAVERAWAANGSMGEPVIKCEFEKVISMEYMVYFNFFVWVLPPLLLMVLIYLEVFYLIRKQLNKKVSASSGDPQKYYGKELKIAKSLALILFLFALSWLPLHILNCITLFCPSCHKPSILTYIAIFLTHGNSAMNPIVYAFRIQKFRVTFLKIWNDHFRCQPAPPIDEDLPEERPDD
Source text: as §1

A2B adenosine receptor [2] = molecular target: T3, A2B adenosine receptor (Rattus norvegicus, UniProt P29276); experiment: Radioligand binding, rat A2B ([125I]I-ABOPX, HEK-293); settings: rat (r), HEK-293, [125I]I-ABOPX
T3 sequence (P29276 1-332): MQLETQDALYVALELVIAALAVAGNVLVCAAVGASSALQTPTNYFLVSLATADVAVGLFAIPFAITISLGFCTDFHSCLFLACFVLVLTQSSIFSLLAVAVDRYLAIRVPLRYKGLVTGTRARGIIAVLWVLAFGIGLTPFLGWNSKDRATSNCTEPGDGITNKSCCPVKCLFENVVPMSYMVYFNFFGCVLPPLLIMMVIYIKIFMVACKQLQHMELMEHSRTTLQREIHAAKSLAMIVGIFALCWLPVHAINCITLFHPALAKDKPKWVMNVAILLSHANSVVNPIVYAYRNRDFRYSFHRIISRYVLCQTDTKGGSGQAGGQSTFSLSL

A1 adenosine receptor [3] = molecular target: T4, A1 adenosine receptor (Rattus norvegicus, UniProt P25099); experiment: Radioligand binding, rat A1 ([3H]R-PIA, HEK-293); settings: HEK-293, [3H]R-PIA
T4 sequence (P25099 1-326): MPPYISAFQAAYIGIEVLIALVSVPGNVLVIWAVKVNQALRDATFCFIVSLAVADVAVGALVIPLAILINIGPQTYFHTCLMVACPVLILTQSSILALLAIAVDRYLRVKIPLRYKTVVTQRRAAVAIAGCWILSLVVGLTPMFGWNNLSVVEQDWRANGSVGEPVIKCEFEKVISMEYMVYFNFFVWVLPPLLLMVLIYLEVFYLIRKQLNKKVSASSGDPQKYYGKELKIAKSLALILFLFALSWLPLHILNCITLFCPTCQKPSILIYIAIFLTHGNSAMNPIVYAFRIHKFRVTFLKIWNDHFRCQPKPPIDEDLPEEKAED
Source text: as §1

A2A adenosine receptor [4] = molecular target: A2A adenosine receptor (Homo sapiens, UniProt P29274); experiment: Radioligand binding, human A2A ([3H]CGS21680, HEK-293); settings: HEK-293, [3H]CGS21680
A2B adenosine receptor [5] = molecular target: T5, A2B adenosine receptor (Homo sapiens, UniProt P29275); experiment: Radioligand binding, human A2B ([125I]I-ABOPX, HEK-293); settings: HEK-293, [125I]I-ABOPX
T5 sequence (P29275 1-332): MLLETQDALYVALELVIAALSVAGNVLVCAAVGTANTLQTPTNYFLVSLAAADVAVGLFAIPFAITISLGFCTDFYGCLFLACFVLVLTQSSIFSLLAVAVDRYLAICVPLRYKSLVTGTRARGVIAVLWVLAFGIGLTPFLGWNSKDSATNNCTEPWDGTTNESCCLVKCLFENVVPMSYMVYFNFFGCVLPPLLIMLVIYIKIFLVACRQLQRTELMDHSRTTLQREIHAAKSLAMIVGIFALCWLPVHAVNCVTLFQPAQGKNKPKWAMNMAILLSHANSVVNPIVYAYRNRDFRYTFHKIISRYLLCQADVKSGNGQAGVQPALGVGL

human A2BAR [6] = molecular target: T6, human A2BAR (Homo sapiens, UniProt P29275); experiment: [3H]PSB-603 displacement on CHO-spap-hA2BAR membranes; assay type: binding
T6 construct: host or cells: CHO-spap
T6 sequence (P29275 1-332): T5 sequence (P29275 1-332)

human A2BAR [7] = molecular target: T6, human A2BAR; experiment: [3H]PSB-603 competition association assay; assay type: binding; settings: for RT: RT = 1/koff; for Kd: read-out: Kinetic KD (koff/kon); for koff: read-out: koff (converted); for kon: read-out: kon (converted)
Procedure: In all radioligand binding experiments, CHO-spap-hA2BAR membranes were thawed and homogenized using an Ultra Turrax homogenizer at 24,000 rpm (IKA-Werke GmbH & Co.KG, Staufen, Germany), diluted in assay buffer to the desired concentration (10–30 μg per well or Eppendorf tube). All materials were brought to 25 °C, 30 min prior to the experiment. ZM241385 (10 μM) was used to determine nonspecific binding (NSB).
Addition of CHO-spap-hA2BAR membrane aliquots initiated the association. The amount of receptor-bound radioligand was determined at different time points up to 3 hr. After 3 hr the incubation was terminated and samples were obtained as described under “Displacement experiments”.
All competition association data were globally fitted.

A2A adenosine receptor [8] = molecular target: A2A adenosine receptor (Rattus norvegicus, UniProt P30543); experiment: Radioligand binding, rat A2A ([3H]CGS21680, HEK-293); settings: rat (r), HEK-293, [3H]CGS21680
[9] = molecular target: T7, hA2BAR (CHO-spap-hA2BAR cells) (Homo sapiens, UniProt P29275); experiment: Label-free whole-cell washout assay; assay type: cell-based; settings: 30 × IC50 antagonist 4 hr, NECA EC80, control without antagonist = 100%
T7 construct: host or cells: CHO-spap
T7 sequence (P29275 1-332): T5 sequence (P29275 1-332)
Procedure: The assay followed the same initial steps as described in “Determination of pIC50 values for hA2BAR antagonists”. […] Subsequently, wells were washed by aspiration of the medium, followed by the addition of 95 μL fresh serum free medium. For the unwashed cells, the medium was not removed but was pipetted up and down to simulate any mechanical cell stress.
Data were analyzed using GraphPad Prism 8.0.
Subsequently, a washout assay was performed and the cell response to the compounds was monitored and evaluated (Fig. 7). […] For the evaluation of the unwashed condition, the medium was not refreshed but was pipetted up and down in order to mimic the possible mechanical stress induced to the washed cells.

human A2BAR [10] = molecular target: T6, human A2BAR; experiment: [3H]PSB-603 radioligand washout assay on membranes; assay type: binding; settings: 10 × IC50, 2 hr pre-incubation, 4x washed, 25 °C
Procedure: Were performed at 25 °C and in a total volume of 400 μL. […] Subsequently, the samples were centrifuged at 13200 rpm (16 100g) at 4 °C for 5 min and the supernatant containing unbound ligand was removed. Pellets were resuspended in 1 mL of assay buffer, and samples were incubated for 10 min at 25 °C in the thermomixer. After four centrifugation and washing cycles in total, supernatant was discarded and the membranes were resuspended in a total volume of 400 μL containing 1.5 nM [^3H]PSB-603. After 2 hr at 25 °C incubations were terminated by rapid filtration through GF/C filters using a Brandel harvester and the samples were obtained as described under “Saturation binding experiments”.
Both the washed and the unwashed conditions were assessed. For the washed condition, the unlabeled compounds were incubated with the target for 2 hr, followed by four wash and centrifugation cycles. Subsequently, [^3H]PSB-603 was co-incubated which led to competition of the radioligand with the unlabeled ligand still bound after the washing procedure. For the unwashed condition no washing was performed before the determination of radioligand displacement. Based on the experimental set-up, the long RT compound and the covalent ligand would be predicted to remain bound to A2BARs, as they would not be easily removed during the washing steps, and thus to result in lower radioligand binding.

[11] = […] [3H]PSB-603, 2 h, 25 °C, read-out: Ki (converted)
[12] = competing ligand at 1.0-fold IC50, up to 3 hr, 25 °C

Sequence of A2A adenosine receptor (Homo sapiens, UniProt P29274) (P29274 whole entry): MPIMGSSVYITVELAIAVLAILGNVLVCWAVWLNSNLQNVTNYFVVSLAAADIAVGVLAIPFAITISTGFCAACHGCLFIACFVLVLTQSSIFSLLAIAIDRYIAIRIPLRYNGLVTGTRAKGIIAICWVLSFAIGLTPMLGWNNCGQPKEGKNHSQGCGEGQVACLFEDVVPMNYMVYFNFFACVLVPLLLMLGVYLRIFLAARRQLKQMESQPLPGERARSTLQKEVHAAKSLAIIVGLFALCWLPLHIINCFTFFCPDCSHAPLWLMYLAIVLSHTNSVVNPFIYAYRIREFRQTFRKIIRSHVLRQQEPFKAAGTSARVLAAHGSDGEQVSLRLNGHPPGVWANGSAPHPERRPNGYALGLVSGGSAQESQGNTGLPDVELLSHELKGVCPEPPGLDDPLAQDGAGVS
Sequence of A2A adenosine receptor (Rattus norvegicus, UniProt P30543) (P30543 whole entry): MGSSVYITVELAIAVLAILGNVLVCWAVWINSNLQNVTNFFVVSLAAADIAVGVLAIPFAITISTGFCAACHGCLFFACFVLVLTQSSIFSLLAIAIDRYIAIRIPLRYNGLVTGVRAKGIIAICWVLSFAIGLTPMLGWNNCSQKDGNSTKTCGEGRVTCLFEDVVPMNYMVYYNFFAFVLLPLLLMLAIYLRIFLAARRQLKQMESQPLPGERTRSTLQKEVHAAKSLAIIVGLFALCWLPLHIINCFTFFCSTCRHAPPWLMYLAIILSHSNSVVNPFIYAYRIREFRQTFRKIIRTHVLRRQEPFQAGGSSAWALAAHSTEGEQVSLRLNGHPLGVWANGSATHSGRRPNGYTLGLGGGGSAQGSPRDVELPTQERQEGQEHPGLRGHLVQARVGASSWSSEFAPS

SMILES	Ki (A3 adenosine receptor)	Ki (A1 adenosine receptor [1])	Ki (A2B adenosine receptor [2])	Ki (A1 adenosine receptor [3])	Ki (A2A adenosine receptor [4])	Ki (A2B adenosine receptor [5])	Ki (human A2BAR [6]; [11])	RT (human A2BAR [7]; [12])	Kd (human A2BAR [7])	koff (human A2BAR [7])	kon (human A2BAR [7])	Ki (A2A adenosine receptor [8])	washout - %AUC, 1x washed (NECA signaling) ([9]; 1x washed)	washout - %AUC, unwashed (NECA signaling) ([9]; unwashed)	A2BARs still occupied by ligand after the washing cycles (human A2BAR [10])	compound removed (washed away) during the washing procedure (human A2BAR [10])	Ki (human A2BAR [6]; Ki)	Kinetic KD (koff/kon) (human A2BAR [7]; [12])
CCCn1c(=O)c2[nH]c(-c3ccc(OCC(=O)N[C@@H](C)c4ccccc4)cc3)nc2n(CCC)c1=O [Compound 25, (S)-2-(4-(2,6-dioxo-1,3-dipropyl-2,3,6,7-tetrahydro-1H-purin-8-yl)phenoxy)-N-(1-phenylethyl)acetamide]	156 ± 15 nM	23.7 ± 4.9 nM	20.2 nM	10.4 nM	21 ± 1.8 nM	8.2 ± 2.5 nM	8.11 nM	10 ± 2.3 min	8.6 ± 3 nM	0.00162 s⁻¹	183000 M⁻¹ s⁻¹	165 nM						
CCCn1c(=O)c2[nH]c(-c3ccc(OCC(=O)Nc4ccc(C(=O)OC)cc4)cc3)nc2n(CCC)c1=O [Compound 17]							2.29 nM	87 min and 87 ± 29 min	1.8 ± 0.62 nM	0.000183 s⁻¹	100000 M⁻¹ s⁻¹		19 ± 6%	10 ± 3%	44%	56%		
CCCn1c(=O)c2[nH]c(-c3ccc(OCC(=O)N[C@H](C)c4ccccc4)cc3)nc2n(CCC)c1=O [Compound 24, (R)-2-(4-(2,6-dioxo-1,3-dipropyl-2,3,6,7-tetrahydro-1H-purin-8-yl)phenoxy)-N-(1-phenylethyl)acetamide]	63.9 ± 16.5 nM	27.3 ± 4.9 nM	21.1 nM	5.23 nM	64.4 ± 21.2 nM	8.5 ± 1.1 nM	15.2 nM	6.1 ± 1.6 min	7.5 ± 3.9 nM	0.00273 s⁻¹	367000 M⁻¹ s⁻¹	375 nM						
CCCn1c(=O)c2[nH]c(-c3ccc(OCC(=O)NCc4ccc(F)cc4)cc3)nc2n(CCC)c1=O [Compound 21, 2-(4-(2,6-dioxo-1,3-dipropyl-2,3,6,7-tetrahydro-1H-purin-8-yl)phenoxy)-N-(4-fluorobenzyl)acetamide]	89.9 ± 11.6 nM	63.9 ± 16.5 nM	20 nM	6.55 nM	33.6 ± 0.1 nM	5.5 ± 1.2 nM	3.6 nM		3.8 ± 1.7 nM	0.0011 s⁻¹	283000 M⁻¹ s⁻¹	251 nM						
CCCn1c(=O)c2[nH]c(-c3ccc(OCC(=O)Nc4ccc(N=C=S)cc4)cc3)nc2n(CCC)c1=O [Compound 29, 2-(4-(2,6-dioxo-1,3-dipropyl-2,3,6,7-tetrahydro-1H-purin-8-yl)phenoxy)-N-(4-isothiocyanatophenyl)acetamide]								Covalent mechanism (see text)								18%	9.28 nM	Covalent mechanism (see text)
CCCn1c(=O)c2[nH]c(-c3ccc(OCC(=O)NCc4ccc(Br)cc4)cc3)nc2n(CCC)c1=O [Compound 22, N-(4-bromobenzyl)-2-(4-(2,6-dioxo-1,3-dipropyl-2,3,6,7-tetrahydro-1H-purin-8-yl)phenoxy)acetamide]	274 ± 56 nM	586 ± 250 nM		32.7 nM	26.1 ± 0.4 nM	6.8 ± 0.8 nM	5.73 nM		6.5 ± 3.6 nM	0.000717 s⁻¹	117000 M⁻¹ s⁻¹	112 nM						
CCCn1c(=O)c2[nH]c(-c3ccc(OCC(=O)NCc4ccc(C)cc4)cc3)nc2n(CCC)c1=O [Compound 20, 2-(4-(2,6-dioxo-1,3-dipropyl-2,3,6,7-tetrahydro-1H-purin-8-yl)phenoxy)-N-(4-methylbenzyl)acetamide]	140 ± 7 nM	212 ± 68 nM	486 nM	8.85 nM	20.8 ± 2.4 nM	8 ± 2.2 nM	9.08 nM	22 ± 3.5 min	12 ± 4.7 nM	0.000767 s⁻¹	66700 M⁻¹ s⁻¹	207 nM						
